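Values below derive from 48-hour exposures of cells grown in 96-well plates, with endpoints linearly interpolated between the two concentrations bracketing the appropriate inhibition level. The concentration for 50% growth inhibition is given as GI50.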 Activity calls are given as the source filed them. Cut-off read from the data, not from the text of the source: active = GI50 up to about 1.1 µM and inactive = higher. A value given as a limit tells only on which side of the number the result lay.

Test systems include A498; BT-549; COLO 205; DU-145; HL-60; HOP-92; HT-29; Hs-578T; IGROV-1; KM12; MDA-MB-435; OVCAR-4; OVCAR-5; RPMI-8226; RXF 393; SF-268; SK-MEL-28; SK-MEL-5; SR; PC-3.
Assay in all cases: inhibition of tumour cell growth, NCI panel, 48 h

With `COc1cc2c(cc1OC)C1CN3CCCC3C(O)C1c1cc(OC)c(OC)cc1-2` (centres undefined), the GI50 in the experiment on A498, with BT-549, in the experiment with COLO 205, with DU-145, with HL-60 and in the experiment with HOP-92 was > 100 µM (inactive) in each case. The GI50 in the experiment on HT-29, with Hs-578T, with IGROV-1, with KM12, with MDA-MB-435 and with OVCAR-4 was > 100 µM (inactive) throughout. Also, the GI50 in the experiment on OVCAR-5 is > 100 µM (inactive); in the experiment with RPMI-8226, > 100 µM (inactive); in the experiment on RXF 393, 82.8 µM (inactive); in the experiment with SF-268 it was > 100 µM (inactive); in the experiment with SK-MEL-28, > 100 µM (inactive); with SK-MEL-5, > 100 µM (inactive). For the same compound, in the experiment on SR, the GI50 is > 100 µM (inactive).
Turning to `C/C(=N\Nc1nc2ccccc2[nH]1)c1cc2ccccc2cn1`, the GI50 with A498 was 0.0993 µM (active); with BT-549, 0.592 µM (active); in the experiment with COLO 205, < 0.01 µM (active); with DU-145, 0.442 µM (active); with HL-60 it was < 0.01 µM (active); in the experiment on HOP-92, 0.0755 µM (active). Further, the GI50 in the experiment on HT-29 is 0.0104 µM (active); in the experiment with Hs-578T, 0.0612 µM (active); in the experiment with IGROV-1, < 0.0175 µM (active); with KM12 it was 0.0741 µM (active); with MDA-MB-435 it was 0.182 µM (active); in the experiment on OVCAR-4, 0.0443 µM (active). Further, the GI50 with OVCAR-5 is 0.288 µM (active); in the experiment on RPMI-8226, < 0.01 µM (active); in the experiment with RXF 393, 0.208 µM (active); in the experiment on SF-268 it was 0.0399 µM (active); in the experiment on SK-MEL-28, 0.0853 µM (active); in the experiment with SK-MEL-5, 0.0494 µM (active). For the same compound, the GI50 in the experiment with SR is 0.0281 µM (active).
`CC(=O)c1cccc(NC(=O)/C(=N\NC(=S)NN)C2C(=O)Nc3ccccc3[S+]2[O-])c1` (centres undefined): the GI50 with A498 is > 100 µM (inactive); with BT-549, > 100 µM (inactive); in the experiment on HL-60, > 100 µM (inactive); in the experiment on HOP-92, 83.8 µM (inactive); in the experiment on HT-29, > 100 µM (inactive); in the experiment with Hs-578T, > 100 µM (inactive). Further, the GI50 in the experiment with IGROV-1, in the experiment with KM12, in the experiment with MDA-MB-435, in the experiment with OVCAR-5, with PC-3 and in the experiment on RPMI-8226 was > 100 µM (inactive) in each case. For the same compound, the GI50 with RXF 393, in the experiment on SF-268, with SK-MEL-28, in the experiment on SK-MEL-5 and with SR was > 100 µM (inactive) each time.
Consider `COC(=O)CCCC(=O)NC1=C(NCc2ccccc2)C(=O)c2ccccc2C1=O`, for which the GI50 with A498 is > 100 µM (inactive); with BT-549 it was 28.6 µM (inactive); with COLO 205, 23.8 µM (inactive); in the experiment on DU-145, > 100 µM (inactive); in the experiment with HL-60 it was 29 µM (inactive); in the experiment with Hs-578T, > 100 µM (inactive). For the same compound, the GI50 in the experiment with IGROV-1 was 44.2 µM (inactive); with KM12, 53.7 µM (inactive); in the experiment on MDA-MB-435, 42.4 µM (inactive); with OVCAR-4, 47.9 µM (inactive); in the experiment with OVCAR-5 it was > 100 µM (inactive); in the experiment with RPMI-8226, 49.5 µM (inactive). In addition, the GI50 is > 100 µM (inactive) in the experiment on SF-268, > 100 µM (inactive) in the experiment on SK-MEL-28 and 46.5 µM (inactive) in the experiment on SR.
On to `COC(=O)/C(C#N)=C1\NC(=O)CC(c2ccccc2)C1C#N` (centres undefined), for which the GI50 is > 100 µM (inactive) in the experiment on BT-549; > 100 µM (inactive) with COLO 205; > 100 µM (inactive) with DU-145; > 100 µM (inactive) in the experiment with HL-60; 63.5 µM (inactive) in the experiment with HOP-92; > 100 µM (inactive) with HT-29. Also, the GI50 with Hs-578T, with IGROV-1, in the experiment on KM12, in the experiment on OVCAR-4, in the experiment with OVCAR-5 and with PC-3 was > 100 µM (inactive) in each case. Moreover, the GI50 with RPMI-8226, with RXF 393, in the experiment on SF-268, in the experiment on SK-MEL-28, in the experiment with SK-MEL-5 and in the experiment with SR was > 100 µM (inactive) throughout.
Consider `Cc1ccc2c(c1)C(=O)/C(=C1/CCc3ccc(C)cc31)C2`, for which the GI50 in the experiment on A498 is > 100 µM (inactive); with BT-549, > 100 µM (inactive); in the experiment on COLO 205, 57.9 µM (inactive); in the experiment on DU-145, > 100 µM (inactive); in the experiment with HL-60, > 100 µM (inactive); in the experiment with HOP-92, > 100 µM (inactive). Further, the GI50 in the experiment on HT-29 was > 100 µM (inactive); with Hs-578T, > 100 µM (inactive); in the experiment with IGROV-1, > 100 µM (inactive); with KM12 it was > 100 µM (inactive); with MDA-MB-435, > 100 µM (inactive); in the experiment with OVCAR-4 it was 30.4 µM (inactive). Also, the GI50 with OVCAR-5, with RPMI-8226, in the experiment with RXF 393, with SF-268, in the experiment with SK-MEL-28 and in the experiment on SK-MEL-5 was > 100 µM (inactive) throughout. Besides, the GI50 in the experiment on SR was 35.6 µM (inactive).
In the case of `NC(Cc1ccc(B(O)O)cc1)C(=O)NC(CO)CO` (centres undefined), the GI50 in the experiment on BT-549, in the experiment on COLO 205, in the experiment with HT-29, with Hs-578T, with IGROV-1 and in the experiment with KM12 was > 100 µM (inactive) in each case. Moreover, the GI50 in the experiment on MDA-MB-435 is > 100 µM (inactive); in the experiment with OVCAR-4, > 100 µM (inactive); in the experiment with OVCAR-5, > 100 µM (inactive); with PC-3 it was > 100 µM (inactive); in the experiment with RPMI-8226 it was > 100 µM (inactive); in the experiment with RXF 393, 67.6 µM (inactive). The GI50 in the experiment with SF-268, with SK-MEL-28, in the experiment on SK-MEL-5 and in the experiment on SR was > 100 µM (inactive) each time.
On to `C=C1C[C@H]2C=Nc3cc(OCCCOc4cc5c(cc4OC)C(=O)N4CC(=C)C[C@H]4C=N5)c(OC)cc3C(=O)N2C1` [SJG-136], for which the GI50 with A498 was 0.0146 µM (active); with BT-549 it was 0.0111 µM (active); with COLO 205, < 0.01 µM (active); in the experiment with HL-60, < 0.01 µM (active); in the experiment with HOP-92, 0.00682 µM (active); with HT-29 it was 0.0147 µM (active). Also, the GI50 in the experiment with Hs-578T is 0.0426 µM (active); with IGROV-1 it was < 0.01 µM (active); in the experiment with KM12, 0.0124 µM (active); in the experiment on OVCAR-4, 0.0306 µM (active); in the experiment with RPMI-8226, 0.0121 µM (active); in the experiment with RXF 393 it was < 0.0107 µM (active). For the same compound, the GI50 with SF-268 was 0.000832 µM (active); with SK-MEL-28, 0.0141 µM (active); in the experiment with SK-MEL-5, < 0.01 µM (active); with SR, < 0.01 µM (active).

The values above are taken from ChEMBL document CHEMBL1201862, “PubChem BioAssay data set” (2004).
